Experimental data taken from BigSolDB 2.1.

NC(=O)[C@@H]1CCCN1
solubility (mole fraction)
Details	in DMF	in THF	in acetone	in acetonitrile	in cyclohexane	in ethyl acetate	in isopropanol	in n-heptane	in n-hexane	in n-propanol
278.15 K	0.0422	0.0621	0.0644	0.0557	6e-05	0.0134	0.0532	0.00025	6e-05	0.0467
283.15 K	0.0578	0.075	0.078	0.0634	9e-05	0.0179	0.0618	0.00036	9e-05	0.0597
288.15 K	0.0758	0.0885	0.0956	0.073	0.00014	0.0242	0.0795	0.00049	0.00015	0.0753
293.15 K	0.0976	0.107	0.113	0.0838	0.00022	0.0315	0.0995	0.00068	0.00023	0.0933
298.15 K	0.123	0.129	0.133	0.0951	0.00032	0.042	0.125	0.00096	0.00032	0.111
303.15 K	0.156	0.156	0.154	0.106	0.00051	0.0549	0.153	0.00131	0.00051	0.13
308.15 K	0.194	0.189	0.177	0.116	0.00079	0.0711	0.19	0.0018	0.00077	0.16
313.15 K	0.238	0.228	0.2	0.127	0.00124	0.0927	0.23	0.00239	0.00112	0.204
318.15 K	0.288	0.287	0.225	0.138	0.0017	0.121	0.28	0.00304	0.00159	0.259
323.15 K	0.347	0.362	0.252	0.148	0.00231	0.154	0.355	0.00401	0.00212	0.328
